Laboratory results as given in patent publication US8722578B2, “Spiroheterocyclic pyrrolidinedione herbicidal compositions” (Syngenta Participations AG, priority 2008, dated 2014).

Assays:
Setaria faberi (SETFA) [1] = assay: Example B post-emergence herbicidal activity, glasshouse pot test; type: in vivo; settings: 312 h, evaluated after 13 days, read-out: SETFA post-emergence activity (100=total damage to plant; 0=no damage to plant); for pest or weed control at 1000 g/ha: rate 1000 g/ha; for pest or weed control at 250 g/ha: rate 250 g/ha
Experimental: (§1) Seeds of a variety of test species are sown in standard soil in pots. After cultivation for one day (pre-emergence) or after 8 days cultivation (post-emergence) under controlled conditions in a glasshouse (at 24/16° C., day/night; 14 hours light; 65% humidity), the plants are sprayed with an aqueous spray solution derived from the formulation of the technical active ingredient in acetone/water (50:50) solution containing 0.5% Tween 20 (polyoxyethelyene sorbitan monolaurate, CAS RN 9005-64-5). The test plants are then grown in a glasshouse under controlled conditions in a glasshouse (at 24/16° C., day/night; 14 hours light; 65% humidity) and watered twice daily. After 13 days for pre and post-emergence, the test is evaluated (100=total damage to plant; 0=no damage to plant). Test Plants: Setaria faberi (SETFA), Alopecurus myosuroides (ALOMY), Echinochloa crus-galli (ECHCG), Avena fatua (AVEFA)

[2] = test system: Echinochloa crus-galli (ECHCG); assay: as above; type: in vivo; settings: 312 h, evaluated after 13 days, read-out: ECHCG post-emergence activity (100=total damage to plant; 0=no damage to plant); for pest or weed control at 1000 g/ha: rate 1000 g/ha; for pest or weed control at 250 g/ha: rate 250 g/ha
Experimental: as §1

[3] = test system: Alopecurus myosuroides (ALOMY); assay: as above; type: in vivo; settings: 312 h, evaluated after 13 days, read-out: ALOMY post-emergence activity (100=total damage to plant; 0=no damage to plant); for pest or weed control at 1000 g/ha: rate 1000 g/ha; for pest or weed control at 250 g/ha: rate 250 g/ha
Experimental: as §1

Avena fatua (AVEFA) [4] = assay: as above; type: in vivo; settings: 312 h, evaluated after 13 days, read-out: AVEFA post-emergence activity (100=total damage to plant; 0=no damage to plant); for pest or weed control at 1000 g/ha: rate 1000 g/ha; for pest or weed control at 250 g/ha: rate 250 g/ha
Experimental: as §1

Setaria faberi (SETFA) [5] = assay: Example A post-emergence herbicidal activity, glasshouse pot test; type: in vivo; settings: 360 h, rate 125 g/ha, evaluated 15 days after spraying, read-out: SETFA post-emergence activity (100=total damage to plant; 0=no damage to plant)
Experimental: (§2) Monocotyledonous and dicotyledonous test plants are sown in standard soil in pots. After cultivation for one day (pre-emergence) or after 10 days cultivation (post-emergence) under controlled conditions in a glasshouse, the plants are sprayed with an aqueous spray solution derived from the formulation of the technical active ingredient in 0.6 ml acetone and 45 ml formulation solution containing 10.6% Emulsogen EL (Registry number 61791-12-6), 42.2% N-methylpyrrolidone, 42.2% dipropylene glycol monomethyl ether (Registry number 34590-94-8) and 0.2% X-77 (Registry number 11097-66-8). The test plants are then grown in a greenhouse under optimum conditions until, 15 days later for post-emergence and 20 days for pre-emergence, the test is evaluated (100=total damage to plant; 0=no damage to plant). Test Plants: Alopecurus myosuroides (ALOMY), Avena fatua (AVEFA), Lolium perenne (LOLPE), Setaria faberi (SETFA), Digitaria sanguinalis (DIGSA), Echinochloa crus-galli (ECHCG) Post-Emergence Activity

Lolium perenne (LOLPE) [6] = assay: as above; type: in vivo; settings: 360 h, rate 125 g/ha, evaluated 15 days after spraying, read-out: LOLPE post-emergence activity (100=total damage to plant; 0=no damage to plant)
Experimental: as §2

[7] = test system: Echinochloa crus-galli (ECHCG); assay: as above; type: in vivo; settings: 360 h, rate 125 g/ha, evaluated 15 days after spraying, read-out: ECHOG post-emergence activity (100=total damage to plant; 0=no damage to plant)
Experimental: as §2

[8] = test system: Digitaria sanguinalis (DIGSA); assay: as above; type: in vivo; settings: 360 h, rate 125 g/ha, evaluated 15 days after spraying, read-out: DIGSA post-emergence activity (100=total damage to plant; 0=no damage to plant)
Experimental: as §2

[9] = test system: Alopecurus myosuroides (ALOMY); assay: as above; type: in vivo; settings: 360 h, rate 125 g/ha, evaluated 15 days after spraying, read-out: ALOMY post-emergence activity (100=total damage to plant; 0=no damage to plant)
Experimental: as §2

Avena fatua (AVEFA) [10] = assay: as above; type: in vivo; settings: 360 h, rate 125 g/ha, evaluated 15 days after spraying, read-out: AVEFA post-emergence activity (100=total damage to plant; 0=no damage to plant)
Experimental: as §2

Setaria faberi (SETFA) [11] = assay: Example A pre-emergence herbicidal activity, glasshouse pot test; type: in vivo; settings: 480 h, rate 250 g/ha, evaluated 20 days after spraying, read-out: SETFA pre-emergence activity (100=total damage to plant; 0=no damage to plant)
Experimental: as §2, with “Pre-Emergence” for “Post-Emergence”

Lolium perenne (LOLPE) [12] = assay: as above; type: in vivo; settings: 480 h, rate 250 g/ha, evaluated 20 days after spraying, read-out: LOLPE pre-emergence activity (100=total damage to plant; 0=no damage to plant)
Experimental: as §2, with “Pre-Emergence” for “Post-Emergence”

[13] = test system: Echinochloa crus-galli (ECHCG); assay: as above; type: in vivo; settings: 480 h, rate 250 g/ha, evaluated 20 days after spraying, read-out: ECHOG pre-emergence activity (100=total damage to plant; 0=no damage to plant)
Experimental: as §2, with “Pre-Emergence” for “Post-Emergence”

[14] = test system: Digitaria sanguinalis (DIGSA); assay: as above; type: in vivo; settings: 480 h, rate 250 g/ha, evaluated 20 days after spraying, read-out: DIGSA pre-emergence activity (100=total damage to plant; 0=no damage to plant)
Experimental: as §2, with “Pre-Emergence” for “Post-Emergence”

[15] = test system: Alopecurus myosuroides (ALOMY); assay: as above; type: in vivo; settings: 480 h, rate 250 g/ha, evaluated 20 days after spraying, read-out: ALOMY pre-emergence activity (100=total damage to plant; 0=no damage to plant)
Experimental: as §2, with “Pre-Emergence” for “Post-Emergence”

Avena fatua (AVEFA) [16] = assay: as above; type: in vivo; settings: 480 h, rate 250 g/ha, evaluated 20 days after spraying, read-out: AVEFA pre-emergence activity (100=total damage to plant; 0=no damage to plant)
Experimental: as §2, with “Pre-Emergence” for “Post-Emergence”

Setaria faberi (SETFA) [17] = assay: Example B pre-emergence herbicidal activity, glasshouse pot test; type: in vivo; settings: 312 h, first table (headed Post-Emergence, taken as pre-emergence), evaluated after 13 days, read-out: SETFA activity (100=total damage to plant; 0=no damage to plant); for pest or weed control at 1000 g/ha: rate 1000 g/ha; for pest or weed control at 250 g/ha: rate 250 g/ha
Experimental: as §1

[18] = test system: Echinochloa crus-galli (ECHCG); assay: as above; type: in vivo; settings: 312 h, first table (headed Post-Emergence, taken as pre-emergence), evaluated after 13 days, read-out: ECHCG activity (100=total damage to plant; 0=no damage to plant); for pest or weed control at 1000 g/ha: rate 1000 g/ha; for pest or weed control at 250 g/ha: rate 250 g/ha
Experimental: as §1

[19] = test system: Alopecurus myosuroides (ALOMY); assay: as above; type: in vivo; settings: 312 h, first table (headed Post-Emergence, taken as pre-emergence), evaluated after 13 days, read-out: ALOMY activity (100=total damage to plant; 0=no damage to plant); for pest or weed control at 1000 g/ha: rate 1000 g/ha; for pest or weed control at 250 g/ha: rate 250 g/ha
Experimental: as §1

Avena fatua (AVEFA) [20] = assay: as above; type: in vivo; settings: 312 h, first table (headed Post-Emergence, taken as pre-emergence), evaluated after 13 days, read-out: AVEFA activity (100=total damage to plant; 0=no damage to plant); for pest or weed control at 1000 g/ha: rate 1000 g/ha; for pest or weed control at 250 g/ha: rate 250 g/ha
Experimental: as §1

Structure (SMILES) | pest or weed control at 1000 g/ha (Setaria faberi (SETFA) [1]) [%] | pest or weed control at 1000 g/ha [2] [%] | pest or weed control at 1000 g/ha [3] [%] | pest or weed control at 1000 g/ha (Avena fatua (AVEFA) [4]) [%] | pest or weed control at 125 g/ha (Setaria faberi (SETFA) [5]) [%] | pest or weed control at 125 g/ha (Lolium perenne (LOLPE) [6]) [%] | pest or weed control at 125 g/ha [7] [%] | pest or weed control at 125 g/ha [8] [%] | pest or weed control at 125 g/ha [9] [%] | pest or weed control at 125 g/ha (Avena fatua (AVEFA) [10]) [%] | melting point [°C] | pest or weed control at 250 g/ha (Setaria faberi (SETFA) [11]) [%] | pest or weed control at 250 g/ha (Lolium perenne (LOLPE) [12]) [%] | pest or weed control at 250 g/ha [13] [%] | pest or weed control at 250 g/ha [14] [%] | pest or weed control at 250 g/ha [15] [%] | pest or weed control at 250 g/ha (Avena fatua (AVEFA) [16]) [%] | pest or weed control at 1000 g/ha (Setaria faberi (SETFA) [17]) [%] | pest or weed control at 1000 g/ha [18] [%] | pest or weed control at 1000 g/ha [19] [%] | further results
CCOC(=O)OC1=C(c2ccc(Cl)cc2Cl)C(=O)NC12CCN(OC)CC2 [Compound P16] | 100 | 100 | 100 | 80 | 50 | 20 | 50 | 50 | 70 | 30 | 187 to 189 | 10 | 50 | 20 | 0 | 30 | 30 | 90 | 40 | 70 | pest or weed control at 1000 g/ha (Avena fatua (AVEFA) [20]): 50%
CCOC(=O)OC1=C(c2c(C)cc(-c3ccc(Cl)cc3)cc2C)C(=O)NC12CCN(OC)CC2 [Compound P70] | – | – | – | – | 90 | 0 | 100 | 100 | 0 | 10 | 217 to 219 | 100 | 30 | 100 | 100 | 70 | 70 | – | – | – | pest or weed control at 250 g/ha (Setaria faberi (SETFA) [1]): 100%; pest or weed control at 250 g/ha [2]: 100%; pest or weed control at 250 g/ha [3]: 100%; pest or weed control at 250 g/ha (Avena fatua (AVEFA) [4]): 100%; pest or weed control at 250 g/ha (Setaria faberi (SETFA) [17]): 100%; pest or weed control at 250 g/ha [18]: 100%; pest or weed control at 250 g/ha [19]: 90%; pest or weed control at 250 g/ha (Avena fatua (AVEFA) [20]): 90%
CCOC(=O)OC1=C(c2c(C)cc(C)cc2C)C(=O)NC12CCN(OC)CC2 [Compound P18] | 100 | 100 | 100 | 90 | 60 | 70 | 80 | 80 | 70 | 60 | – | 20 | 70 | 30 | 20 | 60 | 70 | 100 | 100 | 100 | pest or weed control at 1000 g/ha (Avena fatua (AVEFA) [20]): 90%
CON1CCC2(CC1)NC(=O)C(c1cc(-c3ccc(Cl)cc3)ccc1C)C2=O (stereo not drawn) [Compound T9] | 100 | 100 | 80 | 90 | 90 | 50 | 100 | 100 | 90 | 80 | – | 0 | 30 | 10 | 0 | 0 | 60 | – | – | – | –
CCOC(=O)OC1=C(c2cc(C3CC3)c(C)cc2C)C(=O)NC12CCN(OC)CC2 [Compound P55] | – | – | – | – | – | – | – | – | – | – | 174 to 176 | – | – | – | – | – | – | – | – | – | pest or weed control at 250 g/ha (Setaria faberi (SETFA) [1]): 80%; pest or weed control at 250 g/ha [2]: 70%; pest or weed control at 250 g/ha [3]: 60%; pest or weed control at 250 g/ha (Avena fatua (AVEFA) [4]): 60%; pest or weed control at 250 g/ha (Setaria faberi (SETFA) [17]): 60%; pest or weed control at 250 g/ha [18]: 40%; pest or weed control at 250 g/ha [19]: 10%; pest or weed control at 250 g/ha (Avena fatua (AVEFA) [20]): 0%
